The values below come from patent US20230372498A1, “PLK1 SELECTIVE DEGRADATION INDUCING COMPOUND” (UPPTHERA, priority 2020, published 2023).

The target in this assay is T1, PLK1 (Homo sapiens, UniProt P53350).
T1 construct: endogenous in cells; host or cells: HeLa
Description: PLK1 protein degradation in HeLa cells, Western blotting (PLK1/GAPDH ratio). The note with it: 6 hours compound incubation; for Dmax: thymidine block and release, 10 points three-fold from 3 μM, PLK1 to GAPDH ratio; for DC50: measured only if the grade of Dmax is A or B. The assay is classed as cell-based. The method in brief: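 Thymidine-synchronised HeLa cells (2 mM, 24 h) released 4 h into complete medium, then treated 6 h with compound in 10-point 3-fold dilutions from 3 μM. RIPA lysates (15 μg protein) run on SDS-PAGE; PLK1 Western blot normalised to GAPDH.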

Like-named read-outs stand apart in the source and are kept apart here.

T1 sequence (P53350 whole entry): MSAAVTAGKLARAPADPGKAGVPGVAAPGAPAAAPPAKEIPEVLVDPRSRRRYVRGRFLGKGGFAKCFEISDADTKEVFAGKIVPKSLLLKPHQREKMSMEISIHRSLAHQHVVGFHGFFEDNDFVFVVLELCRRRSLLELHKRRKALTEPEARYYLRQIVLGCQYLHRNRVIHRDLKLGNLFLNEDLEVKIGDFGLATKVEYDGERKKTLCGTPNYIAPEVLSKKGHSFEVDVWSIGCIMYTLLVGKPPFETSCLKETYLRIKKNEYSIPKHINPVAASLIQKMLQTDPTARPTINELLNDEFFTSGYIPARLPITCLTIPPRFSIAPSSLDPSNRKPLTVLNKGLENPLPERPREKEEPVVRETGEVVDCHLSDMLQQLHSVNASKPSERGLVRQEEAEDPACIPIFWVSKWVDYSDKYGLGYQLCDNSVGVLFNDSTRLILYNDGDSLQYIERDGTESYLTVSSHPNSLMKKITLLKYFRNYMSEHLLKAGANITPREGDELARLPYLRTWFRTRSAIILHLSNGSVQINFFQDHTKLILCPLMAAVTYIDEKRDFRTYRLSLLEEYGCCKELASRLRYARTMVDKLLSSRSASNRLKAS

For the molecule `COc1cc(C(=O)NC2CCN(CCOCCOCCOCCOCC(=O)N[C@H](C(=O)N3C[C@H](O)C[C@H]3C(=O)NCc3ccc(-c4scnc4C)cc3)C(C)(C)C)CC2)c(F)cc1Nc1ncc2c(n1)N(C1CCCC1)CC(F)(F)C(=O)N2C` [Example 82], the maximal degradation (Dmax) result is “C (C: less than 60%)”. As to `COc1cc(C(=O)NC2CCN(CCOCCOCCOCCOCCOCC(=O)N[C@H](C(=O)N3C[C@H](O)C[C@H]3C(=O)NCc3ccc(-c4scnc4C)cc3)C(C)(C)C)CC2)c(F)cc1Nc1ncc2c(n1)N(C1CCCC1)CC(F)(F)C(=O)N2C` [Example 83], the Dmax entry is recorded as “C (C: less than 60%)”. On to `COc1cc(C(=O)NC2CCN(CCCCCCCCOCC(=O)N[C@H](C(=O)N3C[C@H](O)C[C@H]3C(=O)NCc3ccc(-c4scnc4C)cc3)C(C)(C)C)CC2)c(F)cc1Nc1ncc2c(n1)N(C1CCCC1)CC(F)(F)C(=O)N2C` [Example 84], for which the DC50 is at most 500 nM; the Dmax result was “B (B: Dmax is 80% or less and 60% or more)”. As for `COc1cc(C(=O)NC2CCN(CCOCCOc3cc(-c4scnc4C)ccc3CNC(=O)[C@@H]3C[C@@H](O)CN3C(=O)[C@@H](NC(=O)C3(F)CC3)C(C)(C)C)CC2)c(F)cc1Nc1ncc2c(n1)N(C1CCCC1)CC(F)(F)C(=O)N2C` [Example 85, (2S,4R)—N-(2-(2-(2-(4-(4-((9-cyclopentyl-7,7-difluoro-5-methyl-6-oxo-6,7,8,9-tetrahydro-5H-pyrimido[4,5-b][1,4]diazepin-2-yl)amino)-2-fluoro-5-methoxybenzamido)piperidin-1-yl)ethoxy)ethoxy)-4-(4-methylthiazol-5-yl)benzyl)-1-((S)-2-(1-fluorocyclopropane-1-carboxamido)-3,3-dimethylbutanoyl)-4-hydroxypyrrolidine-2-carboxamide], the Dmax (read-out: Dmax) was under 60%. As for `COc1cc(C(=O)NC2CCN(CCOCCOCCOCCOc3cc(-c4scnc4C)ccc3CNC(=O)[C@@H]3C[C@@H](O)CN3C(=O)[C@@H](NC(=O)C3(F)CC3)C(C)(C)C)CC2)c(F)cc1Nc1ncc2c(n1)N(C1CCCC1)CC(F)(F)C(=O)N2C` [Example 87, (2S,4R)—N-(2-(2-(2-(2-(2-(4-(4-((9-cyclopentyl-7,7-difluoro-5-methyl-6-oxo-6,7,8,9-tetrahydro-5H-pyrimido[4,5-b][1,4]diazepin-2-yl)amino)-2-fluoro-5-methoxybenzamido)piperidin-1-yl)ethoxy)ethoxy)ethoxy)ethoxy)-4-(4-methylthiazol-5-yl)benzyl)-1-((S)-2-(1-fluorocyclopropane-1-carboxamido)-3,3-dimethylbutanoyl)-4-hydroxypyrrolidine-2-carboxamide], the Dmax (read-out: Dmax) is under 60%. As to `COc1cc(C(=O)NC2CCN(CCCCCCCCOc3cc(-c4scnc4C)ccc3CNC(=O)[C@@H]3C[C@@H](O)CN3C(=O)[C@@H](NC(=O)C3(F)CC3)C(C)(C)C)CC2)c(F)cc1Nc1ncc2c(n1)N(C1CCCC1)CC(F)(F)C(=O)N2C` [Example 89, (2S,4R)—N-(2-((8-(4-(4-((9-cyclopentyl-7,7-difluoro-5-methyl-6-oxo-6,7,8,9-tetrahydro-5H-pyrimido[4,5-b][1,4]diazepin-2-yl)amino)-2-fluoro-5-methoxybenzamido)piperidin-1-yl)octyl)oxy)-4-(4-methylthiazol-5-yl)benzyl)-1-((S)-2-(1-fluorocyclopropane-1-carboxamido)-3,3-dimethylbutanoyl)-4-hydroxypyrrolidine-2-carboxamide], the DC50 is at most 500 nM. Further, the Dmax (read-out: Dmax) is 60 to 80%. With `CCOc1cc(C(=O)NC2CCN(CCOCCOCCNc3cccc4c3C(=O)N(C3CCC(=O)NC3=O)C4=O)CC2)c(F)cc1Nc1ncc2c(n1)N(C1CCCC1)CC(F)(F)C(=O)N2C` (stereo not drawn) [Example 90, 4-((9-cyclopentyl-7,7-difluoro-5-methyl-6-oxo-6,7,8,9-tetrahydro-5H-pyrimido[4,5-b][1,4]diazepin-2-yl)amino)-N-(1-(2-(2-(2-((2-(2,6-dioxopiperidin-3-yl)-1,3-dioxoisoindolin-4-yl)amino)ethoxy)ethoxy)ethyl)piperidin-4-yl)-5-ethoxy-2-fluorobenzamide], the DC50 is at most 500 nM. Further, the Dmax (read-out: Dmax) was in the range of 60 to 80%. In the same order, the values of `CC(C)Oc1cc(C(=O)NC2CCN(CCOCCOCCNc3cccc4c3C(=O)N(C3CCC(=O)NC3=O)C4=O)CC2)c(F)cc1Nc1ncc2c(n1)N(C1CCCC1)CC(F)(F)C(=O)N2C` (stereo not drawn) [Example 91, 4-((9-cyclopentyl-7,7-difluoro-5-methyl-6-oxo-6,7,8,9-tetrahydro-5H-pyrimido[4,5-b][1,4]diazepin-2-yl)amino)-N-(1-(2-(2-(2-((2-(2,6-dioxopiperidin-3-yl)-1,3-dioxoisoindolin-4-yl)amino)ethoxy)ethoxy)ethyl)piperidin-4-yl)-2-fluoro-5-isopropoxybenzamide] are at most 500 nM and 60 to 80%. The matching figures for `CN1C(=O)C(F)(F)CN(C2CCCC2)c2nc(Nc3cc(F)c(C(=O)NC4CCN(CCOCCOCCNc5cccc6c5C(=O)N(C5CCC(=O)NC5=O)C6=O)CC4)cc3OC3CC3)ncc21` (stereo not drawn) [Example 92, 4-((9-cyclopentyl-7,7-difluoro-5-methyl-6-oxo-6,7,8,9-tetrahydro-5H-pyrimido[4,5-b][1,4]diazepin-2-yl)amino)-5-cyclopropoxy-N-(1-(2-(2-(2-((2-(2,6-dioxopiperidin-3-yl)-1,3-dioxoisoindolin-4-yl)amino)ethoxy)ethoxy)ethyl)piperidin-4-yl)-2-fluorobenzamide]: at most 50 nM and at least 80%. In the case of `CN1C(=O)C(F)(F)CN(C2CCCC2)c2nc(Nc3cc(F)c(C(=O)NC4CCN(CCOCCOCCNc5cccc6c5C(=O)N(C5CCC(=O)NC5=O)C6=O)CC4)cc3OC3CCC3)ncc21` (stereo not drawn) [Example 93, 5-cyclobutoxy-4-((9-cyclopentyl-7,7-difluoro-5-methyl-6-oxo-6,7,8,9-tetrahydro-5H-pyrimido[4,5-b][1,4]diazepin-2-yl)amino)-N-(1-(2-(2-(2-((2-(2,6-dioxopiperidin-3-yl)-1,3-dioxoisoindolin-4-yl)amino)ethoxy)ethoxy)ethyl)piperidin-4-yl)-2-fluorobenzamide], the DC50 was at most 50 nM. Moreover, for the setting “read-out: Dmax”, the Dmax was at least 80%. The matching figures for `CCC(C)Oc1cc(C(=O)NC2CCN(CCOCCOCCNc3cccc4c3C(=O)N(C3CCC(=O)NC3=O)C4=O)CC2)c(F)cc1Nc1ncc2c(n1)N(C1CCCC1)CC(F)(F)C(=O)N2C` (stereo not drawn) [Example 94, 5-(sec-butoxy)-4-((9-cyclopentyl-7,7-difluoro-5-methyl-6-oxo-6,7,8,9-tetrahydro-5H-pyrimido[4,5-b][1,4]diazepin-2-yl)amino)-N-(1-(2-(2-(2-((2-(2,6-dioxopiperidin-3-yl)-1,3-dioxoisoindolin-4-yl)amino)ethoxy)ethoxy)ethyl)piperidin-4-yl)-2-fluorobenzamide]: over 500 nM and 60 to 80%. `CN1C(=O)C(F)(F)CN(C2CCCC2)c2nc(Nc3cc(F)c(C(=O)NC4CCN(CCOCCOCCNc5cccc6c5C(=O)N(C5CCC(=O)NC5=O)C6=O)CC4)cc3OC3CCCC3)ncc21` (stereo not drawn) [Example 95, 4-((9-cyclopentyl-7,7-difluoro-5-methyl-6-oxo-6,7,8,9-tetrahydro-5H-pyrimido[4,5-b][1,4]diazepin-2-yl)amino)-5-(cyclopentyloxy)-N-(1-(2-(2-(2-((2-(2,6-dioxopiperidin-3-yl)-1,3-dioxoisoindolin-4-yl)amino)ethoxy)ethoxy)ethyl)piperidin-4-yl)-2-fluorobenzamide]: the DC50 is over 500 nM. In addition, the greatest degradation seen (Dmax) (read-out: Dmax) fell in the range of 60 to 80%. In the same order, the values of `COc1cc(C(=O)NC2CCN(CCOCCOCCNc3cccc4c3C(=O)N(C3CCC(=O)NC3=O)C4=O)CC2)ccc1Nc1ncc2c(n1)N(C1CCCC1)CC(F)(F)C(=O)N2C` (stereo not drawn) [Example 96, 4-((9-cyclopentyl-7,7-difluoro-5-methyl-6-oxo-6,7,8,9-tetrahydro-5H-pyrimido[4,5-b][1,4]diazepin-2-yl)amino)-N-(1-(2-(2-(2-((2-(2,6-dioxopiperidin-3-yl)-1,3-dioxoisoindolin-4-yl)amino)ethoxy)ethoxy)ethyl)piperidin-4-yl)-3-methoxybenzamide] are at most 50 nM and at least 80%. Turning to `CN1C(=O)C(F)(F)CN(C2CCCC2)c2nc(Nc3cc(F)c(C(=O)NC4CCN(CCOCCOCCNc5cccc6c5C(=O)N(C5CCC(=O)NC5=O)C6=O)CC4)cc3OCCO)ncc21` (stereo not drawn) [Example 97, 4-((9-cyclopentyl-7,7-difluoro-5-methyl-6-oxo-6,7,8,9-tetrahydro-5H-pyrimido[4,5-b][1,4]diazepin-2-yl)amino)-N-(1-(2-(2-(2-((2-(2,6-dioxopiperidin-3-yl)-1,3-dioxoisoindolin-4-yl)amino)ethoxy)ethoxy)ethyl)piperidin-4-yl)-2-fluoro-5-(2-hydroxyethoxy)benzamide], the Dmax (read-out: Dmax) is under 60%. Turning to `CN1C(=O)C(F)(F)CN(C2CCCC2)c2nc(Nc3ccc(C(=O)NC4CCN(CCOCCOCCNc5cccc6c5C(=O)N(C5CCC(=O)NC5=O)C6=O)CC4)cc3OCCO)ncc21` (stereo not drawn) [Example 98, 4-((9-cyclopentyl-7,7-difluoro-5-methyl-6-oxo-6,7,8,9-tetrahydro-5H-pyrimido[4,5-b][1,4]diazepin-2-yl)amino)-N-(1-(2-(2-(2-((2-(2,6-dioxopiperidin-3-yl)-1,3-dioxoisoindolin-4-yl)amino)ethoxy)ethoxy)ethyl)piperidin-4-yl)-3-(2-hydroxyethoxy)benzamide], the DC50 is at most 500 nM. Under “read-out: Dmax”, the Dmax lay in the range of 60 to 80%. In the same order, the values of `CN1C(=O)C(F)(F)CN(C2CCCC2)c2nc(Nc3cc(F)c(C(=O)NC4CCN(CCOCCOCCNc5cccc6c5C(=O)N(C5CCC(=O)NC5=O)C6=O)CC4)cc3OC(F)(F)F)ncc21` (stereo not drawn) [Example 99, 4-((9-cyclopentyl-7,7-difluoro-5-methyl-6-oxo-6,7,8,9-tetrahydro-5H-pyrimido[4,5-b][1,4]diazepin-2-yl)amino)-N-(1-(2-(2-(2-((2-(2,6-dioxopiperidin-3-yl)-1,3-dioxoisoindolin-4-yl)amino)ethoxy)ethoxy)ethyl)piperidin-4-yl)-2-fluoro-5-(trifluoromethoxy)benzamide] are at most 500 nM and 60 to 80%.
